In patent US20260274832A1, “COMPOUNDS AND THEIR USE IN TREATING CANCER” (ASTRAZENECA AB, priority 2023, published 2026):

Columns and labels:
[1] = biological target: T1, AR (AR-full length) in LNCaP cells (Homo sapiens, UniProt P10275, T878A); assay: LNCaP Androgen Receptor Imaging Assay (immunofluorescence of endogenous nuclear AR); assay type: cell-based; settings: 24 h incubation; for DC50: concentration giving 50% of maximum degradation of AR per curve fit, single experiment or average of two or more; for Dmax: LNCaP, maximum degradation observed, normalized as % of positive control (prior art AR PROTAC at 3 μM)
T1 construct: the prostate cancer cell line LNCaP (expressing AR-full length); endogenous in cells; host or cells: LNCaP
T1 sequence (P10275 whole entry T878A): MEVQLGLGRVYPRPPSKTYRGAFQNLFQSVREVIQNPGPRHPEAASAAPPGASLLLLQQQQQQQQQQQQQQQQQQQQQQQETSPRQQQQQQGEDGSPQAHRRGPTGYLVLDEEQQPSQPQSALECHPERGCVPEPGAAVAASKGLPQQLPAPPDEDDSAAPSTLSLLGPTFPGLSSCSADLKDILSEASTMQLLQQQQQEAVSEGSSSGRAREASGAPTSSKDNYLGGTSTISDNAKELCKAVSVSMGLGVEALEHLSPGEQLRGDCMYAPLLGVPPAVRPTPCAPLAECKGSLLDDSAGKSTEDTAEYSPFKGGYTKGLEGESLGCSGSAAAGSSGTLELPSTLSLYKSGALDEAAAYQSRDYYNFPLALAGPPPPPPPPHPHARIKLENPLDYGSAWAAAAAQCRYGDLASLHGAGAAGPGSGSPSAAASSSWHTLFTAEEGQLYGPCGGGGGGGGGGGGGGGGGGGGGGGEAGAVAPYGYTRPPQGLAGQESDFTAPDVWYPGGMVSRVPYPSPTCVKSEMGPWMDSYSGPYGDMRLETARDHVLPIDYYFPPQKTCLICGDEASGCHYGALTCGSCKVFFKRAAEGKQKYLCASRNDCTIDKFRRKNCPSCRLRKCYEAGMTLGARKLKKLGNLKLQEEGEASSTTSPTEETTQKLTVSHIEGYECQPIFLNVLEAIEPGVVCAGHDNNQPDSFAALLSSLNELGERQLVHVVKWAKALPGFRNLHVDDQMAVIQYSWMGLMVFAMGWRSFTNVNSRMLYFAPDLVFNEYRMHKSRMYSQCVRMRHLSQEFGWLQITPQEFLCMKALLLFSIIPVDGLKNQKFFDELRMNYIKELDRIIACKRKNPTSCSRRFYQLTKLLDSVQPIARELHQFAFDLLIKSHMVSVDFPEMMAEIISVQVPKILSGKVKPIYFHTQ
T1 sequence (Q96SW2 whole entry partner): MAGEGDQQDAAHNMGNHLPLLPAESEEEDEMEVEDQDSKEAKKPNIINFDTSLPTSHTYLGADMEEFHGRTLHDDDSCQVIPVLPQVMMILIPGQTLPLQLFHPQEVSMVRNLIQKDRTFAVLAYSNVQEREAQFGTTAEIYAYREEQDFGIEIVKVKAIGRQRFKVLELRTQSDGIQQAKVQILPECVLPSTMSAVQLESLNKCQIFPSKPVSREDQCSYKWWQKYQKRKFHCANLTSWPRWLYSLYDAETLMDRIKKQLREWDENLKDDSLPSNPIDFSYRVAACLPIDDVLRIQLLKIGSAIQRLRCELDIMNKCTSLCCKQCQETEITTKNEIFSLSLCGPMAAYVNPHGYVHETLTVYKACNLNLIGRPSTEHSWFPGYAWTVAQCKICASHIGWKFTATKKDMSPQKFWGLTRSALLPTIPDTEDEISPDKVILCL
Summary of the method: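 LNCaP cells (12,000/well) received a 12-point compound dose series (0.3% DMSO) for 24 h at 37° C., then were PFA-fixed and stained for AR (AR441) and nuclei (DRAQ5). Nuclear AR was quantified by imaging, normalized to a 3 μM AR PROTAC control; DC50 and Dmax came from Hill/bell curve fits.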

[2] = biological target: T2, AR (L702H) in LNCaP cells (Homo sapiens, UniProt P10275, L702H/T878A); assay: LNCaP Androgen Receptor L702H Imaging Assay (LNCaP cells engineered by CRISPR/Cas9); assay type: cell-based; settings: LNCaP cells with AR L702H mutation, 24 h incubation; for DC50: concentration giving 50% of maximum degradation of AR (L702H) per curve fit; for Dmax: LNCaP, maximum degradation observed, normalized as % of positive control
T2 construct: engineered to introduce the mutation L702H into the AR gene using CRISPR/Cas9; endogenous in cells; host or cells: LNCaP cells edited by CRISPR/Cas9 at the AR gene
T2 sequence (P10275 whole entry L702H/T878A): as the sequence (P10275 whole entry T878A) above, with L702H counted along it
T2 sequence (Q96SW2 whole entry partner): as the sequence (Q96SW2 whole entry partner) above
Summary of the method: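 CRISPR-engineered LNCaP cells carrying AR L702H were treated 24 h at 37 °C with a 12-point compound dose response (0.3% DMSO), then fixed and immunostained for AR with DRAQ5 nuclear counterstain. Nuclear AR was quantified by imaging, normalized to positive control; DC50 and Dmax came from Hill or bell-shaped fits.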

`N#Cc1c[nH]c2c(N3CCC(c4ccc(OCCCCN5CCN(c6ccc7c(c6)CN(C6CCC(=O)NC6=O)C7=O)CC5)cc4)CC3)cccc12` (stereo not drawn) [Example 57] showed a DC50 [1] of 18 nM, a Dmax [1] of 87% and a DC50 [2] of 31 nM. The Dmax [2] was 79%.
`N#Cc1c[nH]c2c(N3CCC(c4ccc(OCCCCN5CCC(n6ccc7c(N8CCC(=O)NC8=O)cccc76)CC5)cc4)CC3)cccc12` [Example 58, 7-{4-[4-(4-{4-[4-(2,4-Dioxo-1,3-diazinan-1-yl)-1H-indol-1-yl]piperidin-1-yl}butoxy)phenyl]piperidin-1-yl}-1H-indole-3-carbonitrile] was tested, and the DC50 [1] was 13 nM, the Dmax [1] was 96% and the DC50 [2] was 114 nM. It also gave a Dmax [2] of 78%.
`N#Cc1c[nH]c2c(N3CCC(c4ccc(N5CCC(CN6CCC(n7ccc8c(N9CCC(=O)NC9=O)cccc87)CC6)CC5)cc4)CC3)cccc12` [Example 59, 7-(4-{4-[4-({4-[4-(2,4-Dioxo-1,3-diazinan-1-yl)-1H-indol-1-yl]piperidin-1-yl}methyl)piperidin-1-yl]phenyl}piperidin-1-yl)-1H-indole-3-carbonitrile] showed a DC50 [1] of 51 nM, a Dmax [1] of 88% and a DC50 [2] of 47 nM. The Dmax [2] was 95%.
Compound `COc1cc(N2CCN(CC3CCN(c4ccc(C5CCN(c6ccc(Cl)c7c(C#N)c[nH]c67)CC5)nc4)CC3)CC2)cc2c1C(=O)N(C1CCC(=O)NC1=O)C2` (stereo not drawn) [Example 60, 4-Chloro-7-(4-{5-[4-({4-[2-(2,6-dioxopiperidin-3-yl)-7-methoxy-1-oxo-2,3-dihydro-1H-isoindol-5-yl]piperazin-1-yl}methyl)piperidin-1-yl]pyridin-2-yl}piperidin-1-yl)-1H-indole-3-carbonitrile] has a DC50 [1] of 5 nM, a Dmax [1] of 93% and a DC50 [2] of 23 nM. For the same compound, the Dmax [2] was 57%.
Work on `COc1nc(N2CCN(CC3CCN(c4ccc(C5CCN(c6ccc(Cl)c7c(C#N)c[nH]c67)CC5)nc4)CC3)CC2)cc2c1C(=O)N(C1CCC(=O)NC1=O)C2` (stereo not drawn) [Example 61, 4-Chloro-7-(4-{5-[4-({4-[2-(2,6-dioxopiperidin-3-yl)-4-methoxy-3-oxo-2,3-dihydro-1H-pyrrolo[3,4-c]pyridin-6-yl]piperazin-1-yl}methyl)piperidin-1-yl]pyridin-2-yl}piperidin-1-yl)-1H-indole-3-carbonitrile] yielded a DC50 [1] of 6 nM, a Dmax [1] of 94% and a DC50 [2] of 25 nM. The Dmax [2] was 65%.
Work on `N#Cc1c[nH]c2c(N3CCC(c4ccc(N5CCC(CN6CCC(n7ccc8c(N9CCC(=O)NC9=O)cccc87)CC6)CC5)cn4)CC3)ccc(Cl)c12` [Example 62, 4-Chloro-7-(4-{5-[4-({4-[4-(2,4-dioxo-1,3-diazinan-1-yl)-1H-indol-1-yl]piperidin-1-yl}methyl)piperidin-1-yl]pyridin-2-yl}piperidin-1-yl)-1H-indole-3-carbonitrile] yielded a DC50 [1] of 7 nM, a Dmax [1] of 99% and a DC50 [2] of 80 nM. It also gave a Dmax [2] of 71%.
For `N#Cc1c[nH]c2c(N3CCC(c4ccc(N5CCC(CN6CCC(n7ccc8c(N9CCC(=O)NC9=O)cccc87)CC6)CC5)nn4)CC3)ccc(Cl)c12` [Example 63, 4-Chloro-7-(4-{6-[4-({4-[4-(2,4-dioxo-1,3-diazinan-1-yl)-1H-indol-1-yl]piperidin-1-yl}methyl)piperidin-1-yl]pyridazin-3-yl}piperidin-1-yl)-1H-indole-3-carbonitrile], the DC50 [1] was 6 nM, the Dmax [1] was 94% and the DC50 [2] was 16 nM. It also gave a Dmax [2] of 63%.
For `N#Cc1c[nH]c2c(N3CCC(c4ccc(N5CCC(CN6CCN(c7ccc8c(c7)CN(C7CCC(=O)NC7=O)C8=O)CC6)CC5)nn4)CC3)ccc(Cl)c12` (stereo not drawn) [Example 64, 4-Chloro-7-(4-{6-[4-({4-[2-(2,6-dioxopiperidin-3-yl)-1-oxo-2,3-dihydro-1H-isoindol-5-yl]piperazin-1-yl}methyl)piperidin-1-yl]pyridazin-3-yl}piperidin-1-yl)-1H-indole-3-carbonitrile], the DC50 [1] was 5 nM, the Dmax [1] was 83% and the DC50 [2] was 8 nM. The Dmax [2] was 56%.
`N#Cc1c[nH]c2c(N3CCC(c4cnc(N5CCC(CN6CCC(n7ccc8c(N9CCC(=O)NC9=O)cccc87)CC6)CC5)cn4)CC3)ccc(Cl)c12` [Example 67] gave a DC50 [1] of 4 nM, a Dmax [1] of 98% and a DC50 [2] of 14 nM. It also gave a Dmax [2] of 87%.
